Experimental data taken from patent US10285982B2, “3-(1H-pyrrolo[2,3-B]pyridin-2-yl)-1H-pyrazolo[3,4-C]pyridines and therapeutic uses thereof” (Samumed, LLC, priority 2015, dated 2019).

Tests used:
Assay type in all cases: cell-based
SW480 colon cancer cells = assay: Cell viability assay (CellTiter-Blue); details: Homo sapiens, 96 h, four days; for inhibition at 10 µM: given where EC50 >10 μM, read-out: percent inhibition at 10 μM
Summary of the method: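 Resazurin reduction (Ex 560/Em 590 nm, ~3 h reagent incubation) served as the viability read-out after SW480 cells were treated for four days at 37 °C. Doses ran from 10 μM down to 0.0045 μM in eight 1:3 steps. Curves fitted non-linearly for EC50, else % inhibition at 10 μM reported.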

[1] = system: primary human fibroblasts derived from IPF patients (LL29 cells) treated with TGF-β1; assay: Inhibition of fibrotic process, αSMA staining in TGF-β1 treated LL29 fibroblasts; details: Fibroblast; for EC50: 96 h, % αSMA positive LL29 cells, TGF-β1 20 ng/mL, 4 days; for inhibition at 10 µM: given where EC50 >10 μM, αSMA, LL29 cells, TGF-β1, read-out: percent inhibition at 10 μM
Summary of the method: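 EC50 values come from non-linear fits of the αSMA-positive percentage among SYTOX-excluded live cells, normalized to TGF-β1 plus DMSO controls, or appear as % inhibition at 10 μM when above 10 μM. Fibrosis was induced in IPF-derived LL29 fibroblasts by 20 ng/mL TGF-β1 over 4 days, with 1:2 compound dilutions from 10 μM.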

IL-6 (THP-1 cells) = assay: IL-6 inhibition in LPS-stimulated THP-1 cells (HTRF); details: Homo sapiens; for EC50: IL-6 in THP-1 cells, LPS 500 ng/mL, 22 hours; for inhibition at 10 µM: given where EC50 >10 μM, IL-6, THP-1 cells, LPS, read-out: percent inhibition at 10 μM
Summary of the method: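 Readout is the 665/620 nm HTRF ratio for secreted IL-6, normalized to DMSO wells, with EC50 from a variable-slope four-parameter fit, or % inhibition at 10 μM when above 10 μM. Cells (1% FBS, 24 h beforehand) got compound for 2 h, then LPS 500 ng/mL for 22 h at 37° C; top dose 10 μM, 0.1% DMSO.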

EC50 (SW480 colon cancer cells)	EC50 (IL-6 (THP-1 cells))	Compound	inhibition at 10 µM (SW480 colon cancer cells)	EC50 [1]	inhibition at 10 µM (IL-6 (THP-1 cells))	inhibition at 10 µM [1]
> 10 µM	> 10 µM	Nc1cncc(-c2cc3c(-c4cc5c(-c6ccccc6F)ccnc5[nH]4)n[nH]c3cn2)c1 [Compound 59, 5-(3-(4-(2-Fluorophenyl)-1H-pyrrolo[2,3-b]pyridin-2-yl)-1H-pyrazolo[3,4-c]pyridin-5-yl)pyridin-3-amine]	16.4%	0.386 µM	37.3%	–
> 10 µM	0.529 µM	CC(C)CC(=O)Nc1cncc(-c2cc3c(-c4cc5cccnc5[nH]4)n[nH]c3cn2)c1 [Compound 254, N-(5-(3-(1H-Pyrrolo[2,3-b]pyridin-2-yl)-1H-pyrazolo[3,4-c]pyridin-5-yl)pyridin-3-yl)-3-methylbutanamide]	20.2%	9.98 µM	–	–
> 10 µM	> 10 µM	O=C(Nc1cncc(-c2cc3c(-c4cc5c(-c6ccncc6)ccnc5[nH]4)n[nH]c3cn2)c1)C1CCCCC1 [Compound 135, N-(5-(3-(4-(Pyridin-4-yl)-1H-pyrrolo[2,3-b]pyridin-2-yl)-1H-pyrazolo[3,4-c]pyridin-5-yl)pyridin-3-yl)cyclohexanecarboxamide]	10.3%	> 10 µM	17.8%	10.8%
8.43 µM	> 10 µM	Cc1ccncc1-c1cc2c(-c3cc4c(-c5ccncc5)ccnc4[nH]3)n[nH]c2cn1 [Compound 117, 5-(4-Methylpyridin-3-yl)-3-(4-(pyridin-4-yl)-1H-pyrrolo[2,3-b]pyridin-2-yl)-1H-pyrazolo[3,4-c]pyridine]	–	4.43 µM	15.9%	–
> 10 µM	> 10 µM	O=C(Nc1cncc(-c2cc3c(-c4cc5c(-c6ccncc6)ccnc5[nH]4)n[nH]c3cn2)c1)C1CCC1 [Compound 133, N-(5-(3-(4-(Pyridin-4-yl)-1H-pyrrolo[2,3-b]pyridin-2-yl)-1H-pyrazolo[3,4-c]pyridin-5-yl)pyridin-3-yl)cyclobutanecarboxamide]	3.7%	2.6 µM	11.9%	–
> 10 µM	> 10 µM	Fc1cccc(-c2ccnc3[nH]c(-c4n[nH]c5cnc(-c6cncc(CN7CCCC7)c6)cc45)cc23)c1 [Compound 14, 3-(4-(3-Fluorophenyl)-1H-pyrrolo[2,3-b]pyridin-2-yl)-5-(5-(pyrrolidin-1-ylmethyl)pyridin-3-yl)-1H-pyrazolo[3,4-c]pyridine]	13.3%	3.53 µM	21.6%	–
> 10 µM	> 10 µM	CN(C)CCNc1cc(F)cc(-c2ccnc3[nH]c(-c4n[nH]c5cnc(-c6ccncc6)cc45)cc23)c1 [Compound 466, N^1-(3-Fluoro-5-(2-(5-(pyridin-4-yl)-1H-pyrazolo[3,4-c]pyridin-3-yl)-1H-pyrrolo[2,3-b]pyridin-4-yl)phenyl)-N^2,N^2-dimethylethane-1,2-diamine]	16.8%	1.74 µM	5.9%	–
> 10 µM	> 10 µM	O=C(Nc1cncc(-c2cc3c(-c4cc5c(-c6cccnc6)ccnc5[nH]4)n[nH]c3cn2)c1)c1ccccc1 [Compound 95, N-(5-(3-(4-(Pyridin-3-yl)-1H-pyrrolo[2,3-b]pyridin-2-yl)-1H-pyrazolo[3,4-c]pyridin-5-yl)pyridin-3-yl)benzamide]	14.2%	> 10 µM	31.8%	0.8%

Further lines, the compound ahead of its results:

Compound	EC50 (SW480 colon cancer cells)	EC50 (IL-6 (THP-1 cells))	inhibition at 10 µM (SW480 colon cancer cells)	EC50 [1]	inhibition at 10 µM (IL-6 (THP-1 cells))	inhibition at 10 µM [1]
CC(C)C(=O)Nc1cncc(-c2cc3c(-c4cc5c(-c6ccc(F)cc6)ccnc5[nH]4)n[nH]c3cn2)c1 [Compound 37, N-(5-(3-(4-(4-Fluorophenyl)-1H-pyrrolo[2,3-b]pyridin-2-yl)-1H-pyrazolo [3,4-c]pyridin-5-yl)pyridin-3-yl)isobutyramide]	2.69 µM	> 10 µM	–	0.668 µM	25.4%	–
CN1CCN(c2ccnc3[nH]c(-c4n[nH]c5cnc(-c6cncc(CNCC7CCCC7)c6)cc45)cc23)CC1 [Compound 249, 1-Cyclopentyl-N-((5-(3-(4-(4-methylpiperazin-1-yl)-1H-pyrrolo[2,3-b]pyridin-2-yl)-1H-pyrazolo[3,4-c]pyridin-5-yl)pyridin-3-yl)methyl)methanamine]	4.29 µM	7.87 µM	–	6.92 µM	–	–
O=C(Nc1cncc(-c2cc3c(-c4cc5c(-c6ccccc6F)ccnc5[nH]4)n[nH]c3cn2)c1)C1CCCCC1 [Compound 79, N-(5-(3-(4-(2-Fluorophenyl)-1H-pyrrolo[2,3-b]pyridin-2-yl)-1H-pyrazolo [3,4-c]pyridin-5-yl)pyridin-3-yl)cyclohexanecarboxamide]	3.49 µM	> 10 µM	–	1.34 µM	5.9%	–
O=C(Nc1cncc(-c2cc3c(-c4cc5c(N6CCCCC6)ccnc5[nH]4)n[nH]c3cn2)c1)C1CC1 [Compound 188, N-(5-(3-(4-(Piperidin-1-yl)-1H-pyrrolo[2,3-b]pyridin-2-yl)-1H-pyrazolo[3,4-c]pyridin-5-yl)pyridin-3-yl)cyclopropanecarboxamide]	1.28 µM	> 10 µM	–	1.78 µM	16.2%	–
O=C(Nc1cncc(-c2cc3c(-c4cc5c(-c6ccc(F)cc6)ccnc5[nH]4)n[nH]c3cn2)c1)C1CCC1 [Compound 49, N-(5-(3-(4-(4-Fluorophenyl)-1H-pyrrolo[2,3-b]pyridin-2-yl)-1H-pyrazolo [3,4-c]pyridin-5-yl)pyridin-3-yl)cyclobutanecarboxamide]	4.64 µM	> 10 µM	–	1.53 µM	26.1%	–
CN(C)Cc1cncc(-c2cc3c(-c4cc5c(-c6ccccc6F)ccnc5[nH]4)n[nH]c3cn2)c1 [Compound 69, 1-(5-(3-(4-(2-Fluorophenyl)-1H-pyrrolo[2,3-b]pyridin-2-yl)-1H-pyrazolo [3,4-c]pyridin-5-yl)pyridin-3-yl)-N,N-dimethylmethanamine]	> 10 µM	> 10 µM	13.2%	> 10 µM	17.4%	0%
Cn1cc(-c2cc3c(-c4cc5cccnc5[nH]4)n[nH]c3cn2)cn1 [Compound 652, 5-(1-Methyl-1H-pyrazol-4-yl)-3-(1H-pyrrolo[2,3-b]pyridin-2-yl)-1H-pyrazolo[3,4-c]pyridine]	> 10 µM	> 10 µM	0%	0.473 µM	15.2%	–
CCCCC(=O)Nc1cncc(-c2cc3c(-c4cc5c(-c6ccccc6F)ccnc5[nH]4)n[nH]c3cn2)c1 [Compound 75, N-(5-(3-(4-(2-Fluorophenyl)-1H-pyrrolo[2,3-b]pyridin-2-yl)-1H-pyrazolo [3,4-c]pyridin-5-yl)pyridin-3-yl)pentanamide]	0.242 µM	> 10 µM	–	0.076 µM	0%	–
Fc1cccc(-c2ccnc3[nH]c(-c4n[nH]c5cnc(-c6cccnc6)cc45)cc23)c1 [Compound 4, 3-(4-(3-Fluorophenyl)-1H-pyrrolo[2,3-b]pyridin-2-yl)-5-(pyridin-3-yl)-1H-pyrazolo[3,4-c]pyridine]	2.73 µM	> 10 µM	–	1.03 µM	21.3%	–
